Results from PubChem BioAssay AID256 (DTP/NCI, 2004).
Inconclusive results and toxic doses are left out. Rule for the calls: active = survival T/C of 150% or more; inactive = T/C below 125% in these data.

Test system: CD2F1 mice, L1210 leukemia ip, survival T/C
Assay: NCI In Vivo Anticancer Drug Screen. Data for tumor model L1210 Leukemia (intraperitoneal) in CD2F1 (CDF1) mice
Settings: higher = longer survival
Summary of the method: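 Vehicle-treated tumor-bearing mice served as controls (C) for compound-treated mice (T). Reported figure is T divided by C.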

[1] = endpoint: mean survival time, dose: 100.0 mg/kg/injection, schedule: Q04DX003 (ip), vehicle: Klucel (hydroxypropylcellulose) (HPC)
[2] = endpoint: mean survival time, dose: 200.0 mg/kg/injection, schedule: Q04DX003 (ip), vehicle: Klucel (hydroxypropylcellulose) (HPC)
[3] = endpoint: mean survival time, dose: 400.0 mg/kg/injection, schedule: Q04DX003 (ip), vehicle: Klucel (hydroxypropylcellulose) (HPC)
[4] = endpoint: mean survival time, dose: 25.0 mg/kg/injection, schedule: Q01DX009 (ip), vehicle: saline with Tween-80
[5] = endpoint: mean survival time, dose: 50.0 mg/kg/injection, schedule: Q01DX009 (ip), vehicle: saline with Tween-80
[6] = endpoint: mean survival time, dose: 100.0 mg/kg/injection, schedule: Q01DX009 (ip), vehicle: saline with Tween-80
[7] = endpoint: mean survival time, dose: 100.0 mg/kg/injection, schedule: Q04DX002 (ip), vehicle: saline with Tween-80
[8] = endpoint: mean survival time, dose: 200.0 mg/kg/injection, schedule: Q04DX002 (ip), vehicle: saline with Tween-80
[9] = endpoint: mean survival time, dose: 100.0 mg/kg/injection, schedule: Q01DX001 (ip), vehicle: saline with Tween-80
[10] = endpoint: mean survival time, dose: 200.0 mg/kg/injection, schedule: Q01DX001 (ip), vehicle: saline with Tween-80
[11] = endpoint: mean survival time, dose: 400.0 mg/kg/injection, schedule: Q01DX001 (ip), vehicle: saline with Tween-80
[12] = endpoint: mean survival time, dose: 200.0 mg/kg/injection, schedule: Q01DX009 (ip), vehicle: saline with Tween-80
[13] = endpoint: mean survival time, dose: 400.0 mg/kg/injection, schedule: Q01DX009 (ip), vehicle: saline with Tween-80
[14] = endpoint: mean survival time, dose: 100.0 mg/kg/injection, schedule: Q01DX001 (ip), vehicle: saline
[15] = endpoint: mean survival time, dose: 200.0 mg/kg/injection, schedule: Q01DX001 (ip), vehicle: saline
[16] = endpoint: mean survival time, dose: 400.0 mg/kg/injection, schedule: Q01DX001 (ip), vehicle: saline

Measured: T/C

O/N=C1/CCCC/C1=C/c1ccc(Cl)cc1
inactive: [1] 98 % of control | [2] 100 % of control | [3] 100 % of control

Brc1nc(Br)c(Br)[nH]1
inactive: [4] 86 % of control | [5] 95 % of control | [6] 92 % of control | endpoint: mean survival time, dose: 100.0 mg/kg/injection, schedule: Q04DX003 (ip), vehicle: saline with Tween-80 100 % of control

O=C(c1ccc(-c2ccccc2)cc1)C(Br)C(Br)c1ccccc1 (stereo not drawn)
inactive: endpoint: mean survival time, dose: 12.5 mg/kg/injection, schedule: Q01DX009 (ip), vehicle: water 95 % of control | endpoint: mean survival time, dose: 50.0 mg/kg/injection, schedule: Q01DX009 (ip), vehicle: water 90 % of control | endpoint: mean survival time, dose: 100.0 mg/kg/injection, schedule: Q01DX009 (ip), vehicle: water 90 % of control | endpoint: mean survival time, dose: 200.0 mg/kg/injection, schedule: Q01DX009 (ip), vehicle: water 102 % of control

N#CCC(=O)N/N=C/c1ccc2c(c1)CCC2
inactive: endpoint: mean survival time, dose: 12.5 mg/kg/injection, schedule: Q01DX009 (ip), vehicle: saline with Tween-80 97 % of control | endpoint: mean survival time, dose: 12.5 mg/kg/injection, schedule: Q04DX003 (ip), vehicle: saline with Tween-80 100 % of control | [4] 90 % of control | endpoint: mean survival time, dose: 25.0 mg/kg/injection, schedule: Q04DX003 (ip), vehicle: saline with Tween-80 97 % of control | [5] 90 % of control | endpoint: mean survival time, dose: 50.0 mg/kg/injection, schedule: Q04DX003 (ip), vehicle: saline with Tween-80 88 % of control

CCOP1(=S)Nc2cc(C)c(C)cc2N1
inactive: endpoint: mean survival time, dose: 25.0 mg/kg/injection, schedule: Q04DX002 (ip), vehicle: saline with Tween-80 98 % of control | endpoint: mean survival time, dose: 50.0 mg/kg/injection, schedule: Q04DX002 (ip), vehicle: saline with Tween-80 87 % of control | [7] 87 % of control | [8] 87 % of control

COc1c2c(cc3c1C(O)N(C)CC3)OCO2 (stereo not drawn)
inactive: endpoint: mean survival time, dose: 75.0 mg/kg/injection, schedule: Q01DX001 (ip), vehicle: saline 100 % of control | endpoint: mean survival time, dose: 150.0 mg/kg/injection, schedule: Q01DX001 (ip), vehicle: saline 110 % of control

[Cl][Cr][Cl].[NH-]CC[NH-].[NH-]CC[NH-]
inactive: endpoint: mean survival time, dose: 100.0 mg/kg/injection, schedule: Q04DX002 (ip), vehicle: saline 95 % of control | endpoint: mean survival time, dose: 200.0 mg/kg/injection, schedule: Q04DX002 (ip), vehicle: saline 95 % of control | endpoint: mean survival time, dose: 400.0 mg/kg/injection, schedule: Q04DX002 (ip), vehicle: saline 88 % of control

O=C1N(CCc2ccccc2)CC2C(c3ccccc3)NNC12O (stereo not drawn)
inactive: [9] 96 % of control | [10] 87 % of control | [11] 87 % of control

CC1OC(OC2C(O)CC(OC3C(O)CC(OC4CCC5(C)C(CCC6C5CCC5(C)C(C7=CC(=O)OC7)CCC65O)C4)OC3C)OC2C)CC(O)C1O (stereo not drawn)
inactive: endpoint: median survival time, dose: 0.5 mg/kg/injection, schedule: Q01DX005 (iv), vehicle: water 109 % of control | endpoint: median survival time, dose: 0.5 mg/kg/injection, schedule: Q01DX010 (ip), vehicle: water 106 % of control | endpoint: median survival time, dose: 1.0 mg/kg/injection, schedule: Q01DX005 (iv), vehicle: water 108 % of control | endpoint: median survival time, dose: 1.0 mg/kg/injection, schedule: Q01DX010 (ip), vehicle: water 108 % of control | endpoint: median survival time, dose: 1.0 mg/kg/injection, schedule: Q04DX003 (ip), vehicle: water 101 % of control | endpoint: median survival time, dose: 1.0 mg/kg/injection, schedule: Q04DX003 (iv), vehicle: water 111 % of control | endpoint: median survival time, dose: 2.0 mg/kg/injection, schedule: Q01DX005 (iv), vehicle: water 97 % of control | endpoint: median survival time, dose: 2.0 mg/kg/injection, schedule: Q01DX010 (ip), vehicle: water 109 % of control | endpoint: median survival time, dose: 2.0 mg/kg/injection, schedule: Q04DX003 (ip), vehicle: water 101 % of control | endpoint: median survival time, dose: 2.0 mg/kg/injection, schedule: Q04DX003 (iv), vehicle: water 109 % of control | endpoint: median survival time, dose: 4.0 mg/kg/injection, schedule: Q01DX005 (iv), vehicle: water 108 % of control | endpoint: median survival time, dose: 4.0 mg/kg/injection, schedule: Q01DX010 (ip), vehicle: water 108 % of control | endpoint: median survival time, dose: 4.0 mg/kg/injection, schedule: Q04DX003 (ip), vehicle: water 107 % of control | endpoint: median survival time, dose: 4.0 mg/kg/injection, schedule: Q04DX003 (iv), vehicle: water 110 % of control | endpoint: median survival time, dose: 8.0 mg/kg/injection, schedule: Q01DX005 (iv), vehicle: water 90 % of control | endpoint: median survival time, dose: 8.0 mg/kg/injection, schedule: Q04DX003 (ip), vehicle: water 98 % of control | endpoint: median survival time, dose: 8.0 mg/kg/injection, schedule: Q04DX003 (iv), vehicle: water 110 % of control | endpoint: median survival time, dose: 16.0 mg/kg/injection, schedule: Q04DX003 (ip), vehicle: water 101 % of control | endpoint: median survival time, dose: 16.0 mg/kg/injection, schedule: Q04DX003 (iv), vehicle: water 76 % of control

Cc1ccc(S(=O)(=O)OCC2OCOC(COS(=O)(=O)c3ccc(C)cc3)C(O)C2O)cc1 (stereo not drawn)
inactive: [6] 101 % of control | [12] 98 % of control | [13] 96 % of control

COC(OC)c1[nH]c(=S)[nH]c(=O)c1Cc1cccc(Cl)c1
inactive: endpoint: mean survival time, dose: 100.0 mg/kg/injection, schedule: Q04DX003 (ip), vehicle: saline sonified 95 % of control | endpoint: mean survival time, dose: 200.0 mg/kg/injection, schedule: Q04DX003 (ip), vehicle: saline sonified 101 % of control | endpoint: mean survival time, dose: 400.0 mg/kg/injection, schedule: Q04DX003 (ip), vehicle: saline sonified 108 % of control

C(=N\C(/N=C/c1ccccc1)c1ccccc1)/c1ccccc1
inactive: [14] 100 % of control | [15] 103 % of control | [16] 106 % of control

CC[n+]1c(-c2ccccc2)c2cc(N)ccc2c2ccc(N)cc21
inactive: endpoint: mean survival time, dose: 1.0 mg/kg/injection, schedule: Q01DX009 (ip), vehicle: water 106 % of control | endpoint: mean survival time, dose: 2.0 mg/kg/injection, schedule: Q01DX009 (ip), vehicle: water 112 % of control | endpoint: mean survival time, dose: 2.5 mg/kg/injection, schedule: Q01DX005 (ip), vehicle: water 101 % of control | endpoint: mean survival time, dose: 4.0 mg/kg/injection, schedule: Q01DX009 (ip), vehicle: water 116 % of control | endpoint: mean survival time, dose: 5.0 mg/kg/injection, schedule: Q01DX005 (ip), vehicle: water 105 % of control | endpoint: mean survival time, dose: 8.0 mg/kg/injection, schedule: Q01DX009 (ip), vehicle: water 122 % of control | endpoint: mean survival time, dose: 10.0 mg/kg/injection, schedule: Q01DX005 (ip), vehicle: water 114 % of control | endpoint: mean survival time, dose: 16.0 mg/kg/injection, schedule: Q01DX009 (ip), vehicle: water 104 % of control

CP(=O)(c1ccccc1)c1ccccc1
inactive: [9] 100 % of control | [10] 103 % of control | [11] 98 % of control

CSC/C(=N\Nc1ccc([N+](=O)[O-])cc1[N+](=O)[O-])c1ccccc1
inactive: endpoint: mean survival time, dose: 50.0 mg/kg/injection, schedule: Q01DX001 (ip), vehicle: saline with Tween-80 98 % of control | [9] 93 % of control | [10] 90 % of control

Oc1ccc(NC(=S)Nc2ccccc2)cc1
inactive: [14] 98 % of control | [15] 98 % of control | [16] 96 % of control

CCCCCCCCOc1ccc(Cl)cc1Cl
inactive: [7] 96 % of control | [8] 104 % of control | endpoint: mean survival time, dose: 400.0 mg/kg/injection, schedule: Q04DX002 (ip), vehicle: saline with Tween-80 104 % of control

CC(=O)NCc1ccc2c(c1)OCO2
inactive: [9] 98 % of control | [10] 111 % of control | [11] 106 % of control

O=C(O)Cc1ccccc1C(=O)O
inactive: [1] 96 % of control | [2] 104 % of control | [3] 96 % of control

CC1(C)OC2C(C#N)OC(n3ccc(=O)[nH]c3=O)C2O1 (stereo not drawn)
inactive: endpoint: median survival time, dose: 21.88 mg/kg/injection, schedule: Q01DX005 (ip), vehicle: Klucel (hydroxypropylcellulose) (HPC) 101 % of control | endpoint: median survival time, dose: 43.75 mg/kg/injection, schedule: Q01DX005 (ip), vehicle: Klucel (hydroxypropylcellulose) (HPC) 102 % of control | endpoint: median survival time, dose: 87.5 mg/kg/injection, schedule: Q01DX005 (ip), vehicle: Klucel (hydroxypropylcellulose) (HPC) 98 % of control | endpoint: median survival time, dose: 175.0 mg/kg/injection, schedule: Q01DX005 (ip), vehicle: Klucel (hydroxypropylcellulose) (HPC) 102 % of control

O=C(Nc1ccc(F)c(Cl)c1)Oc1ccc(F)cc1Cl
inactive: [6] 103 % of control | [12] 104 % of control | [13] 92 % of control

Cc1ccc(S(=O)(=O)N2C(=O)OC3(CCCCC3)C2C)cc1 (stereo not drawn)
inactive: [9] 100 % of control | [10] 95 % of control | [11] 92 % of control
